Values quoted from earlier work, collected in US8668932B2 (priority 2003, dated 2014).

How the values were obtained:
[1] = test system: alpha-1 adrenergic receptors
[2] = for elimination half-life (T½): in vivo
[3] = test system: neuronal norepinephrine reuptake
[4] = not given; remark: listed apart in the source
[5] = test system: neuronal serotonin reuptake

For `COc1ccc(C(CN(C)C)C2(O)CCCCC2)cc1.Cl` (racemic) [venlafaxine, (R/S)-1-[2-(dimethylamino)-1-(4-methoxyphenyl)ethyl]cyclohexanol hydrochloride], the “affinity for histaminergic receptors” value (histaminergic receptors) is listed as “no significant affinity”, the “inhibition of monoamine oxidase” value (monoamine oxidase) is listed as “does not inhibit” and the pKa is listed as 9.4. The “affinity for alpha-1 adrenergic receptors” value [1] was “no significant affinity”, the “elimination half-life (T½)” value [2] was 5 ± 2 h and the absolute bioavailability ([2]; oral) was “about 45%”. For the same compound, the “time to steady-state concentrations” value ([2]; oral multiple dose therapy) was “three”, the “fraction of dose absorbed” value ([2]; single oral dose, mass balance studies) was “at least 92%” and the “inhibition of neuronal norepinephrine reuptake” value [3] was “potent inhibitors”. The “inhibition of dopamine reuptake” value (dopamine reuptake) was “weak inhibitors” and the plasma protein binding [4] was “approximately 30%”.
For `CN(C)CC(c1ccc(O)cc1)C1(O)CCCCC1` (stereo not drawn) [ODV, O-desmethylvenlafaxine], the “elimination half-life (T½)” value [2] is listed as 11 ± 2 h, the “inhibition of neuronal norepinephrine reuptake” value [3] is listed as “potent inhibitors” and the “inhibition of dopamine reuptake” value (dopamine reuptake) is listed as “weak inhibitors”. The “inhibition of neuronal serotonin reuptake” value [5] was “potent inhibitors”.
